Publication PMC8472378, “Desferrioxamine B-Mediated Pre-Clinical In Vivo Imaging of Infection by the Mold Fungus Aspergillus fumigatus” (Journal of Fungi, 2021)

Assays:
A. fumigatus = settings: cited from earlier work
[1] = system: A. fumigatus mutant strain (∆sidA/∆ftrA); assay: Siderophore utilization via growth promotion on solid minimal medium; assay type: cell-based, Aspergillus fumigatus; settings: 0.1 µM iron-loaded siderophore, 48 h at 37 °C
Procedure: Growth assays were performed on solid Aspergillus minimal medium (AMM), as described above, solidified with 1.8% (w/v) agar. The pH was adjusted with NaOH, and the medium was supplemented with the respective siderophore. The agar plates were point-inoculated with 10^4 spores per dot of ∆sidA∆ftrA [10] and incubated at 37 °C for 48 h.

[2] = system: pulmonary A. fumigatus infection; assay: Ex vivo biodistribution in A. fumigatus-infected rats; design: species or system rat; settings: 45 min p.i.; for radioactivity accumulation in non-infected organs (blood, spleen, pancreas, liver, heart and muscle) / route of excretion / uptake in the infected lungs as compared with radiolabeled DFO-B in the same rat: infected rats; for uptake in the infected lungs as compared with radiolabeled DFO-B in the same rat: co-injection
Procedure: (§1) A previously described rat model of pulmonary aspergillosis was used for the in vivo experiments. The introduction of A. fumigatus spores into animals, injection of radiolabeled siderophores and small animal imaging were carried out under 2% isoflurane anesthesia (FORANE, Abbott Laboratories, Abbott Park, IL, USA) to minimize animal suffering and prevent animal motion. Infection in the lung of immunodeficient rats was established by intratracheal inoculation of 100 μL of A. fumigatus spores (10^9 CFU/mL A. fumigatus ATCC 46645; American Type Culture Collection) using the TELE PACK VET X LED system equipped with a flexible endoscope (https://www.karlstorz.com/cps/rde/xbcr/karlstorz_assets/ASSETS/3386919.pdf, accessed on 20 August 2021; Karl Storz GmbH & Co. KG, Tuttlingen, Germany). Depending on the development of the infection, experimental animals underwent an ex vivo biodistribution study or PET/CT imaging, typically 2–4 days after inoculation.
A. fumigatus-infected rats were retro-orbitally (r.o.) injected with [^67Ga]- and [^68Ga]Ga-DFO-B and DFO-E. One infected rat (rat 1) was injected with [^68Ga]Ga-DFO-B and [^67Ga]Ga-DFO-E, while the second rat (rat 2) was […] with [^67Ga]Ga-DFO-B and [^68Ga]Ga-DFO-E (~0.5 MBq and ~0.5 µg of each DFO-B and DFO-E per rat). Rats were sacrificed by exsanguination 45 min post-injection (p.i.). Organs and tissues of interest (blood, spleen, pancreas, kidneys, liver, heart, muscle and lung) were removed and weighed. The amount of radioactivity in the samples was measured in a γ-counter (2480 Wizard-2; Perkin Elmer, Waltham, MA, USA). First, a short-lived ^68Ga was measured immediately after organ removal in the 511 ± 100 keV energy window, and ^67Ga was measured after 24 h in the 185 ± 100 keV energy window. The results are expressed as percentage of injected dose per gram of organ (%ID/g).

[3] = system: pulmonary A. fumigatus infection; assay: PET/CT imaging in rat model of pulmonary aspergillosis; assay type: in vivo, Lewis rats; settings: A. fumigatus-infected rats, r.o. injection
Procedure: as §1
µPET/CT images were acquired with an Albira PET/SPECT/CT small animal imaging system (Bruker Biospin Corporation, Woodbridge, CT, USA). […] After reconstruction, acquired data were viewed, analyzed and processed using the appropriate software (PMOD software, PMOD Technologies Ltd., Zurich, Switzerland and VolView software, Kitware, Clifton Park, NY, USA).

[4] = system: A. fumigatus strain Afs77; assay: Short-term siderophore uptake analysis; assay type: cell-based, Aspergillus fumigatus; settings: for uptake efficacy compared to [68Ga]Ga-DFO-E: 45 min at 37 °C
Procedure: Short-term uptake of siderophore-complexed ^68Ga was analyzed as described previously. A. fumigatus strain Afs77 [25] was grown for 18 h at 37 °C in 100 mL Aspergillus minimal medium (AMM) according to Pontecorvo et. al. with 1% (w/v) glucose as the carbon source and 20 mM glutamine as the nitrogen source, using iron-free trace elements to induce iron limiting for the transcriptional activation of siderophore uptake. To generate iron-replete mycelia for the transcriptional downregulation of siderophore uptake, the growth medium contained an additional 0.03 mM FeSO4. For the analysis of the pH-dependent siderophore uptake, the pH of the fungal culture medium was adjusted with HCl (1 M) and NaOH (1 M) immediately before the uptake analyses. Uptake assays were performed with 180 µL of liquid A. fumigatus culture added to a prewetted 96-well MultiScreen Filter Plates HTS (1 μm glass fiber filter, Merck Millipore, Darmstadt, Germany). Then, 50 µL of radioactive labelled siderophores (~100 nM) were added to the culture and incubated for 45 min at 37 °C. After washing two times with ice-cold TRIS buffer, the dried filters were measured in a γ-counter.

[5] = non-infected rats; cited from earlier work
[6] = design: method as in PMID 32734456; settings: cited from earlier work
[7] = design: method as in PMID 32734456; settings: cited from earlier work; remark: listed apart in the source
[8] = design: method as in PMID 32734456; settings: healthy mice; cited from earlier work
Pseudomonas aeruginosa = settings: cited from earlier work
Klebsiella pneumoniae = settings: cited from earlier work
Staphylococcus aureus = settings: cited from earlier work
Streptococcus agalactiae = system: Streptococcus agalactiae; design: method as in PMID 22172389, PMID 32734456; settings: cited from earlier work
Escherichia coli = system: Escherichia coli; design: method as in PMID 22172389, PMID 32734456; settings: cited from earlier work
Fusarium solani = system: Fusarium solani; design: method as in PMID 23818006; settings: cited from earlier work
Aspergillus terreus = system: Aspergillus terreus; design: method as in PMID 23818006; settings: cited from earlier work
Aspergillus flavus = system: Aspergillus flavus; design: method as in PMID 23818006; settings: cited from earlier work
R. oryzae = system: R. oryzae; design: method as in PMID 23818006; settings: cited from earlier work
Rhizopus arrhizus = system: Rhizopus arrhizus; design: method as in PMID 23818006; settings: cited from earlier work
Candida albicans = system: Candida albicans; design: method as in PMID 23818006; settings: cited from earlier work
Mycobacterium smegmatis = system: Mycobacterium smegmatis; design: method as in PMID 23818006; settings: cited from earlier work
[9] = infected rat 1 (injected with [68Ga]Ga-DFO-B and [67Ga]Ga-DFO-E)
[10] = infected rat 2 (injected with [67Ga]Ga-DFO-B and [68Ga]Ga-DFO-E)

## CC(=O)N(O)CCCCCNC(=O)CCC(=O)N(O)CCCCCNC(=O)CCC(=O)N(O)CCCCCN [DFO-B, desferrioxamine B]
A. fumigatus
  in vitro uptake compared to the TAFC and DFO-E metal complexes: significantly lower in vitro uptake

## CC(=O)N([O-])CCCCCNC(=O)CCC(=O)N([O-])CCCCCNC(=O)CCC(=O)N([O-])CCCCCN.[Fe+3] [Fe-DFO-B]
[1]; pH 5 (acidic), listed as Fe-DFO-B^ac
  growth promotion activity: rescued the growth promotion
[1]; pH 7 (neutral)
  growth promotion activity: promoted growth
[1]; pH 9 (alkaline)
  growth promotion activity: promoted growth

## CC(=O)N([O-])CCCCCNC(=O)CCC(=O)N([O-])CCCCCNC(=O)CCC(=O)N([O-])CCCCCNC(=O)CCC(=O)O.[Fe+3] [Fe-DFO-B^suc]
[1]; pH 9 (alkaline)
  growth promotion activity: lowest growth promotion activity

## O=C1CCC(=O)N([O-])CCCCCNC(=O)CCC(=O)N([O-])CCCCCNC(=O)CCC(=O)N([O-])CCCCCN1.[Fe+3] [Fe-DFO-E]
[1]; pH 5 (acidic)
  growth promotion activity: promoted the growth
[1]; pH 7 (neutral)
  growth promotion activity: promoted the growth
[1]; pH 9 (alkaline)
  growth promotion activity: promoted the growth

## CC(=O)N([O-])CCCCCNC(=O)CCC(=O)N([O-])CCCCCNC(=O)CCC(=O)N([O-])CCCCCN.[67Ga+3] [[^67Ga]Ga-DFO-B]
[2]
  radioactivity accumulation in non-infected organs (blood, spleen, pancreas, liver, heart and muscle): low radioactivity accumulation
  route of excretion: primary excretion via kidneys

## O=C1CCC(=O)N([O-])CCCCCNC(=O)CCC(=O)N([O-])CCCCCNC(=O)CCC(=O)N([O-])CCCCCN1.[67Ga+3] [[^67Ga]Ga-DFO-E]
[2]
  radioactivity accumulation in non-infected organs (blood, spleen, pancreas, liver, heart and muscle): low radioactivity accumulation
  route of excretion: primary excretion via kidneys
  uptake in the infected lungs as compared with radiolabeled DFO-B in the same rat: only slightly higher uptake

## CC(=O)N([O-])CCCCCNC(=O)CCC(=O)N([O-])CCCCCNC(=O)CCC(=O)N([O-])CCCCCN.[68Ga+3] [[^68Ga]Ga-DFO-B]
[3]; PET/CT 45 min p.i.
  elimination of unbound tracer: rapidly eliminated via the renal system
[3]; static PET/CT 45 min p.i.
  PET/CT imaging of the infected area in the lungs: clear depiction of the infected area in the lungs
[2]; [9]
  ratio of activity in lung vs. blood: about 17
[2]; [10]
  ratio of activity in lung vs. blood: ~8
[2]
  radioactivity accumulation in non-infected organs (blood, spleen, pancreas, liver, heart and muscle): low radioactivity accumulation
  route of excretion: primary excretion via kidneys
[4]; pH 5, iron-limited culture
  uptake efficacy compared to [68Ga]Ga-DFO-E: approximately 20%
[4]; pH 7, iron-limited culture
  uptake efficacy compared to [68Ga]Ga-DFO-E: about 50%
[4]; pH 9, iron-limited culture
  uptake efficacy compared to [68Ga]Ga-DFO-E: ~80%
[5]
  accumulation in the lungs: negligible accumulation
  ratio of 68Ga activity in lung vs. blood: 0.84
[6]
  protein binding: low protein binding
[7]
  stability in human serum and PBS: high stability
[8]
  renal excretion: rapid renal excretion
  retention in the blood and other organs: minimal retention
A. fumigatus
  in vitro uptake: uptake was found
Pseudomonas aeruginosa
  in vitro uptake: uptake was found
Klebsiella pneumoniae
  in vitro uptake: lack significant uptake
Staphylococcus aureus
  in vitro uptake: uptake was found
Streptococcus agalactiae
  in vitro uptake: uptake was found
Escherichia coli
  in vitro uptake: lack significant uptake

## CC(=O)N([O-])CCCCCNC(=O)CCC(=O)N([O-])CCCCCNC(=O)CCC(=O)N([O-])CCCCCNC(=O)CCC(=O)O.[68Ga+3] [[^68Ga]Ga-DFO-B^suc]
[4]; pH 9, 45 min at 37 °C
  uptake efficacy (in words): highly decreased uptake efficacy

## O=C1CCC(=O)N([O-])CCCCCNC(=O)CCC(=O)N([O-])CCCCCNC(=O)CCC(=O)N([O-])CCCCCN1.[68Ga+3] [[^68Ga]Ga-DFO-E]
[2]; [9]
  ratio of activity in lung vs. blood: about 17
[2]; [10]
  ratio of activity in lung vs. blood: ~8
[2]
  radioactivity accumulation in non-infected organs (blood, spleen, pancreas, liver, heart and muscle): low radioactivity accumulation
  route of excretion: primary excretion via kidneys
  uptake in the infected lungs as compared with radiolabeled DFO-B in the same rat: only slightly higher uptake
[5]
  accumulation in the lungs: negligible accumulation
  ratio of 68Ga activity in lung vs. blood: 0.79
A. fumigatus
  in vitro uptake: highest uptake
Fusarium solani
  in vitro uptake: considerable uptake
Aspergillus terreus
  in vitro uptake: considerable uptake
Aspergillus flavus
  in vitro uptake: considerable uptake
Staphylococcus aureus
  in vitro uptake: considerable uptake
R. oryzae
  in vitro uptake: considerable uptake

## CC(=O)N[C@H]1CCCN2[O][Ga]3[O]N(CCC[C@H](NC(C)=O)C(=O)OCC/C(C)=C/C(=O)N(CCC[C@H](NC(C)=O)C(=O)OCC/C(C)=C/C2=O)[O]3)C(=O)/C=C(\C)CCOC1=O [[^68Ga]Ga-TAFC]
A. fumigatus
  in vitro uptake: uptake
Rhizopus arrhizus
  in vitro uptake: uptake
Aspergillus terreus
  in vitro uptake: no significant uptake
Aspergillus flavus
  in vitro uptake: no significant uptake
Candida albicans
  in vitro uptake: no significant uptake
Pseudomonas aeruginosa
  in vitro uptake: no significant uptake
Klebsiella pneumoniae
  in vitro uptake: no significant uptake
Staphylococcus aureus
  in vitro uptake: no significant uptake
Mycobacterium smegmatis
  in vitro uptake: no significant uptake
